Consider two compounds from ChEMBL document CHEMBL5104122, “Synthesis and application of phosphorylated saccharides in researching carbohydrate-based drugs” (Bioorg Med Chem, 2022).

The target in the test is Galectin-7 (Homo sapiens, UniProt P47929). Put plainly: Binding affinity to human Gal-7 assessed as dissociation constant by fluorescence polarization assay. (In general: In fluorescence polarisation assays a small probe gives low polarisation when free and higher when bound to something large.)

A word on the Kd: it is a measure of binding affinity in units of concentration.

Sequence of Galectin-7 (P47929 whole entry): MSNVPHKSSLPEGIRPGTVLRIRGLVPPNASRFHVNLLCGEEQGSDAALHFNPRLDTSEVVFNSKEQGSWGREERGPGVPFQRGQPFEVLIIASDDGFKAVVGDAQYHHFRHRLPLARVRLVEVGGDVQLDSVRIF

`COP(=O)(O)O[C@@H]1[C@@H](NC(=O)c2ccc(C)cc2)[C@@H](O)[C@@H](CO)O[C@H]1SC`: the Kd came to 240 µM.

As to `CS[C@@H]1O[C@H](CO)[C@H](O)[C@H](NC(=O)c2ccc(C)cc2)[C@H]1OP(=O)(O)OCc1ccccc1`, the Kd amounted to 450 µM.
